This passage reports binding results from publication PMC5569033 (2017).

Assay [1] deals with Tyr1M1 (RNA, aptamer) GGAUGUAACUGAAUGAAAUGGUGAAGGACGGGUCCAGCCCUUGGCAGUCAACUCGUGCGAUCGUGAAAACGGGGCAAGAUGGCCUUACAGCGGUCAAUACGGGGGUCAUCAGAUAGGGAGGCCAGGAUAUGUUGAGUAGAGUGUGAGCUCCGUAACUAGUUACAUC
Kind of assay: dye fluorescence in droplets. The following applies: 200 mM KCl, 10 mM NaCl, 10 mM MgCl2; 100 mM Tris pH 7.5; 30 μM RNA, 3 μM dye; salmon sperm DNA; with secreted tyrosine.

The subject of assay [2] is Spinach2-Streptavidin aptamer (Streptavidin (SA)) (RNA, aptamer) GAUGUAACUGAAUGAAAUGGUGAAGGACGGGUCCACGACCGACCAGAAUCAUGCAAGUGCGUAAGAUAGUCGCGGGCCGGGGUUGUUGAGUAGAGUGUGAGCUCCGUAACUAGUUACAUC
Nature of the assay: dye fluorescence, plate reader. The following applies: 200 mM KCl, 10 mM NaCl, 1 mM MgCl2; 100 mM Tris pH 7.5, 25 °C, 14 h; 10 μM RNA, 2 μM dye; with streptavidin.

In assay [3] the test system is Tyr1M1 (RNA, aptamer) GGAUGUAACUGAAUGAAAUGGUGAAGGACGGGUCCAGCCCUUGGCAGUCAACUCGUGCGAUCGUGAAAACGGGGCAAGAUGGCCUUACAGCGGUCAAUACGGGGGUCAUCAGAUAGGGAGGCCAGGAUAUGUUGAGUAGAGUGUGAGCUCCGUAACUAGUUACAUC
Kind of assay: Spinach sensor fluorescence turn-on. The following applies: 125 mM KCl, 5 mM MgCl2; 50 mM Tris-HCl pH 7.5; 2 μM DFHBI or DFHBI-1T; 1 mM ligand; 10 μM RNA.

For `CC1=N/C(=C\c2cc(F)c(O)c(F)c2)C(=O)N1CC(F)(F)F`, the binding result in assay [1] and in assay [2] was “yes” in each case. Take `N[C@@H](Cc1ccc(O)cc1)C(=O)O`: the binding entry in assay [3] is recorded as “yes”.
